Assay results from patent publication US5552267A, “Solution for prolonged organ preservation” (priority 1994, dated 1996).

Legend:
pulmonary vasculature = conditions: in vivo; cited from earlier work
[1] = tested on: cardiac graft vasculature; assay: graft blood flow by latex microspheres, cAMP series; type: in vivo, rat
Protocol: Perfusion of Donor Graft. Ten minutes after restoration of blood flow, a suspension of latex microspheres (0.5 ml of 10 μm diameter microspheres at a final concentration in 10^6 /ml in phosphate-buffered saline containing Tween 80, 0.05%) (E-Z Trac, Los Angeles, Calif.) was injected over 30 seconds into the donor aortic root. After one minute, the heart was rapidly excised, rinsed free of intracavitary and surface blood, and the atria and great vessels were removed. The ventricles were cut into pieces, each piece weighed, and then digested by alkaline hydrolysis, centrifuged and washed according to the manufacturer's instructions. Beads in each piece were then counted in an Improved Neubauer hemocytometer VWR Scientific, Piscataway, N.J.). Results are expressed as number of spheres per (40X) field per gram of ventricle. A minimum of ten fields were counted and the mean ± SEM is reported.

[2] = tested on: neutrophil infiltration of cardiac graft; assay: graft myeloperoxidase activity/histology (leukocyte infiltration), cAMP series; type: in vivo, rat
Protocol: Myeloperoxidase assay/histology. Ten minutes following restoration of blood flow, transplanted hearts were excised and the aortic root was flushed for 5 minutes (rate of 2 ml/minute controlled by roller pump) with normal saline (Baxter, Edison, N.J.), the atria and great vessels were removed, and intracavitary blood was evacuated. Remaining ventricular pieces were weighed, and homogenized in phosphate buffer (50 mM; pH 7.4, 5 ml/gm of tissue) containing hexadecyltrimethylammonium bromide (0.5%; HTAB, [Sigma]) and frozen at -80° C. The myeloperoxidase assay was performed, as described (29), by thawing the sample, centrifuging at 40,000 g for 10 minutes at 4° C., and decanting the supernatant, which was assayed for myeloperoxidase activity using standard chromogenic spectrophotometric technique: test sample (0.1 ml) was added to phosphate buffer (50 mM; pH 6.0) containing O-dianisidine dihydrochloride (Sigma), hydrogen peroxide (0.0005%), and change in absorbance at 460 nm was measured over 5 min (increase in OD was linear over this time interval). For histologic study, cardiac graft samples were fixed in an ascending series of aldehydes, embedded, sectioned, and stained with hematoxylin and eosin.

heart = assay: heterotopic rat cardiac transplant, cAMP series, graft survival/score; type: in vivo, rat (male Sprague-Dawley)
From the text: Preservation solutions included lactated Ringer's (LR) solution Baxter, Edison, N.J.), or LR supplemented with rolipram ZK 62 711, Schering AG, Berlin, Germany), indolidan LY195115, Lilly Research Laboratories, Indianapolis, Ind.), sodium butyrate, 8-bromoadenosine, 8-bromoadenosine 3',5'monophosphate (8-Br-cAMP; Sigma Chemical Co., St. Louis, Mo.), the Rp -isomer of adenosine 3',5'monophosphorothioate (Rp -cAMPS; Biolog, La Jolla, Calif.), the Sp isomer of adenosine 3',5'monophosphorothioate (Sp -cAMPS; Biolog), and N^6,O^2' -dibutyryl adenosine 3',5'monophosphate sodium (db-cAMP; Aldrich, Milwaukee, Wis.). Components were combined within 4 hrs of donor cardiectomy, and preservation solutions were kept at 4° C. University of Wisconsin solution (UW)(2-4 was purchased from Dupont (Wilmington, Del.).
Donor Cardiectomy. Male Sprague-Dawley rats (350-450 grams, Camm Research, Wayne, N.J.) were anesthetized, heparinized (1000 units of heparin given intravenously), and the donor heart removed in the following manner; a midline incision was performed, followed by rapid cardioplegic arrest with 5 ml of cold (4° C.), high potassium solution (NACl, 0.9%, and KCl, 40 mEq/L). The heart was maintained at 4° C. throughout the harvest procedure by the application of a cold saline soaked gauze over its surface. […] The aortic root was flushed with ≈15 ml of the cold preservation solution until the coronary arteries became visibly clear, and the heart remained in the cold storage solution for the indicated duration until the time of transplantation.
Heterotopic Transplant. The same breed/size of rat was used, and similarly anesthetized, but not given heparin. A midline abdominal incision was made, and the infrarenal aorta and vena cava were occluded with a side-biting vascular clamp and longitudinal incisions were made in each vessel. The donor heart was removed from the preservation solution and kept moist with saline-soaked gauze. […] Blood flow was restored to the graft (by removal of the clamp) exactly one hour after removal from the cold preservation solution. […] Ten minutes after removal of the cross-clamp, an electrocardiogram was taken (Grass Polygraph, Quincy, Mass.) and the heart was judged by the same blinded investigators throughout based on the presence/absence of regular contractions and a transplant score (0-5, worst-best, respectively) employing the following criteria: contraction (poor=0, average=1, vigorous=2), tissue turgor (hard=0, average=1, soft=2), and color (dusky=0, pink=1). […] The heterotopic cardiac transplant experiments performed in these studies were done by a single surgeon after establishment of this model and acquisition of surgical expertise, with control and experimental groups interspersed throughout the study period to prevent a time-dependent bias pertaining to surgical skills.
Statistics. Graft survival data and transplant scores were analyzed using the Kruskal-Wallis non-parametric analysis of variance (38). Comparisons of individual treatments were performed using the procedure described by Dunn (39). In addition, the effect of db-cAMP on the time-course of graft failure was quantified by multivariate logistic regression. Graft myeloperoxidase data, microsphere data, and cAMP/adenylate cyclase/phosphodiesterase data from experiments with cultured vascular smooth muscle cells were analyzed by t-tests when 2 treatments were performed or by analysis of variance when 3 or more treatments were performed. In the latter case, post-hoc comparison of treatment groups were tested using Tukey's procedure. Values are expressed as means ±SEM, with a p <0.05 considered statistically significant.

[3] = in vitro toxicity to endothelial cells; type: cell-based; conditions: data not shown, read-out: concentration toxic to endothelial cells
lung [4] = conditions: in vivo; cited from earlier work
lung [5] = assay: orthotopic rat left lung transplantation, nitroglycerin series; type: in vivo, rat (male Lewis)
vascular smooth muscle = conditions: cited from earlier work

## CCCOc1ccccc1-c1nc2[nH]nnc2c(=O)[nH]1 [M&B 22948, 2-o-propoxyphenyl-8-azapurin-6-one]
Pulmonary vasculature
  effect on vasodilators: augments the pulmonary vasodilating effects of NO(cGMP)-dependent vasodilators, but not those of a cAMP-dependent vasodilator

## CCCC(=O)Nc1ncnc2c1ncn2[C@@H]1O[C@@H]2COP(=O)(O)O[C@H]2[C@H]1OC(=O)CCC [db-cAMP, N^6, O^2' -dibutyryl adenosine 3',5'monophosphate]
[1]; 12 h in LR, db-cAMP 2 mM vs LR alone
  graft blood flow: significant increase in blood flow
[1]; vs without db-cAMP
  fold increase in graft blood flow: 5.5 fold
[2]; 12 h, db-cAMP 2 mM in LR vs LR alone
  fold decrease in neutrophil infiltration / myeloperoxidase activity: 3.2 fold
[2]; 12 h in LR, 10 min reperfusion, db-cAMP 2 mM where added
  PMNs in blood vessel by histology: no PMNs
heart; 12 h in LR
  concentration for optimal/maximal preservation: 1 to 2 mM
heart; 12 h preservation in LR
  graft survival: 90%
[3]
  MCC: > 4 mM

## NNc1nncc2ccccc12 [hydralazine]
Lung [4]
  effect on lung preservation: not proven beneficial in lung preservation
Lung [5]; 30 mL at constant pressure during harvest
  pulmonary artery flushing time: 69.3 ± 4.5 s
Lung [5]; 6 h in EC, 30 min, supplements NTG 0.1 mg/mL, hydralazine 0.02 μg/mL
  recipient survival: 33%

## nitric oxide [NO]
Vascular smooth muscle
  minimal concentration relaxing vascular smooth muscle: less than 15 nM
